Test results published in ChEMBL document CHEMBL2321853, “Novel acylethanolamide derivatives that modulate body weight through enhancement of hypothalamic pro-opiomelanocortin (POMC) and/or decreased neuropeptide Y (NPY)” (J Med Chem, 2013).
Calls of active or inactive are those of the source. No cut-off for these calls is given here.

Columns and labels:
[1] = test system: Mus musculus; experiment: Antiobesity activity in Sabra mouse assessed as reduction in body weight at 1 mg/kg, ip administered on day 0, 10, 11, 12, 24, 29 measured on day 29 relative to control; assay type: functional; parameters: scale not given: the % may be the effect or the level left; settings: route intraperitoneal
[2] = test system: Mus musculus; experiment: Antiobesity activity in Sabra mouse assessed as reduction in body weight at 1 mg/kg, ip administered on day 0, 10, 11, 12, 24, 29 measured on day 33 relative to control; assay type: functional; parameters: scale not given: the % may be the effect or the level left; settings: route intraperitoneal
[3] = test system: Mus musculus; experiment: Antiobesity activity in Sabra mouse assessed as reduction in body weight at 1 mg/kg, ip administered on day 0, 10, 11, 12, 24, 29 measured on day 26 relative to control; assay type: functional; parameters: scale not given: the % may be the effect or the level left; settings: route intraperitoneal
[4] = test system: Mus musculus; experiment: Antiobesity activity in Sabra mouse assessed as reduction in body weight at 1 mg/kg, ip administered on day 0, 10, 11, 12, 24, 29 measured on day 24 relative to control; assay type: functional; parameters: scale not given: the % may be the effect or the level left; settings: route intraperitoneal
[5] = test system: Mus musculus; experiment: Antiobesity activity in Sabra mouse assessed as reduction in body weight at 1 mg/kg, ip administered on day 0, 10, 11, 12, 24, 29 measured on day 19 relative to control; assay type: functional; parameters: scale not given: the % may be the effect or the level left; settings: route intraperitoneal
[6] = test system: Mus musculus; experiment: Antiobesity activity in C57BL/6 mouse assessed as change in cholesterol level at 5 mg/kg, ip measured on day 36 (reference value: 86.58 mg/dL); assay type: functional; settings: route intraperitoneal
[7] = test system: Mus musculus; experiment: Antiobesity activity in C57BL/6 mouse assessed as change in triglyceride level at 5 mg/kg, ip measured on day 36 (reference value: 0.92 mg/dL); assay type: functional; settings: route intraperitoneal
[8] = test system: Mus musculus; experiment: Antiobesity activity in C57BL/6 mouse assessed as weight loss at 5 mg/kg, ip administered on day 1, 4, 5, 7, 17, 15, 19 measured on day 15 relative to control; assay type: functional; settings: route intraperitoneal
[9] = test system: Mus musculus; experiment: Antiobesity activity in C57BL/6 mouse assessed as weight loss at 5 mg/kg, ip administered on day 1, 4, 5, 7, 17, 15, 19 measured on day 11 relative to control; assay type: functional; settings: route intraperitoneal
[10] = test system: Mus musculus; experiment: Antiobesity activity in C57BL/6 mouse assessed as weight loss at 5 mg/kg, ip administered on day 1, 4, 5, 7, 17, 15, 19 measured on day 5 relative to control; assay type: functional; settings: route intraperitoneal
[11] = test system: Mus musculus; experiment: Enhancement of cognitive function in Sabra mouse at 1 mg/kg, ip administered on day 8, 12 and 43 by eight-arm maze test; assay type: functional, organism-based; parameters: dose 1 mg/kg
[12] = test system: Mus musculus; experiment: Increase in ALT levels in Sabra mouse at 1 mg/kg, ip administered on day 8, 12 and 43 measured on day 74; assay type: ADME, organism-based; parameters: dose 1 mg/kg, route intraperitoneal; settings: in vivo
[13] = test system: Mus musculus; experiment: Antiobesity activity in Sabra mouse assessed as change in body weight at 1 mg/kg, ip administered on day 8, 12 and 43 measured on day 50 relative to control; assay type: functional; settings: route intraperitoneal
[14] = test system: Mus musculus; experiment: Antiobesity activity in Sabra mouse assessed as change in body weight at 1 mg/kg, ip administered on day 8, 12 and 43 measured on day 29 relative to control; assay type: functional; settings: route intraperitoneal
[15] = test system: Mus musculus; experiment: Antiobesity activity in Sabra mouse assessed as change in body weight at 1 mg/kg, ip administered on day 8, 12 and 43 measured on day 8 relative to control; assay type: functional; settings: route intraperitoneal
[16] = test system: Mus musculus; experiment: Toxicity in Sabra mouse assessed as morphological changes in glial cells at 1 mg/kg, ip administered on day 8, 9, 10, 11, 14, 18, 24 and 32 by hematoxylin and eosin staining-based histopathological analysis; assay type: organism-based; parameters: dose 1 mg/kg, route intraperitoneal; settings: in vivo
[17] = test system: Mus musculus; experiment: Enhancement of cognitive function C57BL/6 mouse assessed as reduction food consumption at 1 mg/kg, ip administered on day 3, 6, 8, 9, 10 measured on day 10; assay type: functional, organism-based; parameters: dose 1 mg/kg
[18] = test system: Mus musculus; experiment: Enhancement of motor activity in Sabra mouse at 10 mg/kg, ip administered on day 6 to 10 by open field test relative to control; assay type: functional; settings: route intraperitoneal
[19] = test system: Hypothalamus; experiment: Effect on CAMKK2 gene expression in Sabra mouse hypothalamus assessed as change in mRNA level at 1 mg/kg, ip administered on day 8, 9, 10, 11, 14, 18, 24 and 32 by RT-PCR analysis relative to GAPDH; assay type: functional; settings: route intraperitoneal
[20] = test system: Hypothalamus; experiment: Effect on 5HT1A gene expression in Sabra mouse hypothalamus assessed as change in mRNA level at 1 mg/kg, ip administered on day 8, 9, 10, 11, 14, 18, 24 and 32 by RT-PCR analysis relative to GAPDH; assay type: functional; settings: route intraperitoneal
[21] = test system: Hypothalamus; experiment: Effect on POMC gene expression in Sabra mouse hypothalamus assessed as change in mRNA level at 1 mg/kg, ip administered on day 8, 9, 10, 11, 14, 18, 24 and 32 by RT-PCR analysis relative to GAPDH; assay type: functional; settings: route intraperitoneal
[22] = biological target: Cannabinoid receptor 2 (Homo sapiens) (UniProt P34972); experiment: Displacement of [3H]WIN-55,212-2 from human recombinant CB2 receptor expressed in CHO-K1 cells at 10 uM relative to control; assay type: cell-based
[23] = test system: Mus musculus; experiment: Antiobesity activity in high fat diet fed C57BL/6 mouse assessed as reduction food consumption at 1 mg/kg, ip administered on day 3, 6, 8, 9, 10 measured after week 1 relative to control; assay type: functional; parameters: scale not given: the % may be the effect or the level left; settings: route intraperitoneal
[24] = test system: Mus musculus; experiment: Antiobesity activity in high fat diet fed C57BL/6 mouse assessed as reduction in body weight at 1 mg/kg, ip administered on day 3, 6, 8, 9, 10 measured on day 10 relative to control; assay type: functional; parameters: scale not given: the % may be the effect or the level left; settings: route intraperitoneal
[25] = test system: Mus musculus; experiment: Antiobesity activity in high fat diet fed C57BL/6 mouse assessed as reduction in body weight at 1 mg/kg, ip administered on day 3, 6, 8, 9, 10 measured on day 7 relative to control; assay type: functional; parameters: scale not given: the % may be the effect or the level left; settings: route intraperitoneal
[26] = test system: Mus musculus; experiment: Antiobesity activity in Sabra mouse assessed as reduction in body weight at 10 mg/kg, administered for 6 to 51 days via oral gavage measured on day 52 relative to control; assay type: functional, organism-based; parameters: dose 10 mg/kg
[27] = test system: Mus musculus; experiment: Antiobesity activity in Sabra mouse assessed as change in body weight at 1 mg/kg, ip administered on day 8, 9, 10, 11, 14, 18, 24 and 32 measured on day 25 relative to control; assay type: functional; settings: route intraperitoneal
[28] = test system: Mus musculus; experiment: Antiobesity activity in Sabra mouse assessed as change in body weight at 1 mg/kg, ip administered on day 8, 9, 10, 11, 14, 18, 24 and 32 measured on day 9 relative to control; assay type: functional; settings: route intraperitoneal

Chain of Cannabinoid receptor 2 (Homo sapiens) (P34972 whole entry): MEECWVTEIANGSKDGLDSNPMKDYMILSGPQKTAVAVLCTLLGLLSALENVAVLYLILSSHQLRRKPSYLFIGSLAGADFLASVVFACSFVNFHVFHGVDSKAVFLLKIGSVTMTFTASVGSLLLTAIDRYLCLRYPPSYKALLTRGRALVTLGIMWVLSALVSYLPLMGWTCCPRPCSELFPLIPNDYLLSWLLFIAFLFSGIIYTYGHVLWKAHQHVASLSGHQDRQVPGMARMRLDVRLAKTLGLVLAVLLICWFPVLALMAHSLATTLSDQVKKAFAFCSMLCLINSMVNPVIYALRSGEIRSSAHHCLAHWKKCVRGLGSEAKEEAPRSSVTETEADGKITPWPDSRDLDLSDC

CCCCCCCC/C=C\CCCCCCCC(=O)N[C@H](CO)C(C)C
Activity [1]: -5.98% | Activity [2]: -4% | Activity [3]: -4.05% | Activity [4]: -4.24% | Activity [5]: -1.85% | Activity [6]: 83.01 mg/dL | Activity [7]: 1.017 mg/dL | Activity [8]: -4.7% | Activity [9]: -3.2% | Activity [10]: -3.2% | Activity [11]: Active | Activity [12]: Not Active | Activity [13]: -6% | Activity [14]: -4.9% | Activity [15]: 0.7% | Activity [16]: Non-toxic | Activity [17]: Active | Activity [18]: 30% | Activity [19]: -18% | Activity [20]: -20% | Activity [21]: 36% | inhibition [22]: 18% | Activity [23]: 22% | Activity [24]: -6.3% | Activity [25]: -3.2% | Activity [26]: Active | Activity [27]: -5% | Activity [28]: -2.2%
